“Also recorded” adds a separate entry of the source.
Tests used:
[1] = target: GDP-bound KRAS^WT (Homo sapiens, UniProt P01116); assay: MST binding, GDP-bound KRAS WT; details: GDP state
Source text: FIGS. 1A-1D show representative data for the predicted binding mode and measured affinity of disclosed compound 11 to KRAS. (FIG. 1A) Structure of the catalytic domain of KRAS used for the virtual screening. Lobe1 (residues 1-86) and lobe2 (residues 87-166) are highlighted in different colors, as well as switches 1 (residues 30-40) and 2 (residues 60-75). The location of the target allosteric pocket p1 is indicated. (FIG. 1B) Chemical structure of compound 11. (FIG. 1C) Predicted binding pose of compound 11, with the key residues that make polar or vdW contacts with the ligand labeled. (FIG. 1D) Microscale thermophoresis (MST) experiments indicating direct binding of compound 11 to KRAS, along with dissociation constants (KD) derived from the curves. Changes in fluorescence upon titration of […] KRAS with increasing concentration of compound are shown: KRAS^WT (red), KRAS^G12C (green), KRAS^G12D (purple) and KRAS^Q61M (blue), each bound to the non-hydrolyzable GTP analogue, guanylyl imidodiphosphate (GNP). The same experiments indicated no binding to GDP-bound KRAS^G12D and KRAS^WT as well as Rap1B, which was used as control. […]

[2] = target: KRAS (Homo sapiens, UniProt P01116); assay: Nucleotide release assay (intrinsic and SOS-mediated); format: biochemical
Experimental: (FIG. 6A) Chemical structure of compound 13, an analogue of 11 without a benzene on the pyrimidine core. (FIG. 6B) Predicted binding pose of compound 13. […] See legend of FIGS. 2A-2C for additional details. […] (FIG. 6D) Fluorescence polarization of ^BGTP-γ-SKRAS (0.5 μM) with increasing concentration of GST-Raf^RBD in the absence (red) and presence (green) of 20 μM compound 13. (FIG. 6E) Level of GFP-KRAS^G12D pulled down by GST-Raf^RBD after treatment of whole cell lysates with 10 μM of compound 13 (representative Western blots are shown at the top). The RBD sequence length was 1-149 in the fluorescence polarization assay (FIG. 6D) and 51-131 in the pull-down assay (FIG. 6E). (FIG. 6F) Intrinsic (red) and SOS-mediated (blue) nucleotide release rates were determined. Briefly, fluorescence intensity data obtained in a mixture of 0.5 μM KRAS (and SOS), 100 μM GTP and 0 or 50 μM of compound 13 (top), derived from the changes in during the reaction KRAS^BGDP+GTP→KRAS^GTP+BGDP (bottom). Rates were calculated using single exponential fits starting from 120 s, and are show in the inset to the right of the graph.
Nucleotide exchange and release assays. Loading of fluorescent-labeled GDP (BODIPY-GDP; BGDP from hereon) to KRAS was conducted following previous reports (23, 47), with minor modifications. Purified KRAS was buffer-exchanged in NAP-5 column (GE Life Sciences) in low Mg^2+ buffer (25 mM Tris pH 7.5, 50 mM NaCl, and 0.5 mM MgCl2). The eluate was incubated with 10-fold molar excess of BGDP (Life Technologies) in the presence of 5 mM EDTA and 1 mM DTT for 1.5 h at 20° C. in the dark. […] The concentration of ^BGDPKRAS was determined using Bradford assay and a BGDP standard curve. Then the effect of ligands on the intrinsic rate of nucleotide release was monitored using the decrease in fluorescence with time as BGDP dissociates from KRAS in a 100 μL reaction mixture (96-well plate) of 0.5 μM B^GDPKRAS, 100 μM GTP and varying concentrations of ligand (0 to 25 μM); GTP was added just before measurements. To measure the rate of SOS-mediated nucleotide release, 0.5 μM SOS (residues 564-1049, Cytoskeleton Inc) was added after adding GTP, and fluorescence was immediately read (excitation: 485 nm, emission: 510 nm) using Tecan Infinite M200 plate reader. Intrinsic and SOS-mediated nucleotide exchange rates were monitored with the fluorescence intensity increase of BGTP as it displaces GDP from KRAS. […] Experiments were conducted with minimal light and the reaction was monitored for 2 h at room temperature. Fluorescence intensities were normalized at 120 s and the traces were fit with linear or single exponential functions (Igor Pro, Wavemetrics).
The effect of compound 11 on intrinsic and GEF-dependent nucleotide release and exchange reactions was determined. […]

Sequence of KRAS (P01116 1-188 isoform P01116-2): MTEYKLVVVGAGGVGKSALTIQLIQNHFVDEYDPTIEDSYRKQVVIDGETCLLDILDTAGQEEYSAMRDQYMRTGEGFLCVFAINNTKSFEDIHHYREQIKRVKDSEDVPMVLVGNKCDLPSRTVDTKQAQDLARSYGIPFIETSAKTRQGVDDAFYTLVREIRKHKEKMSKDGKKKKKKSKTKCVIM
Sequence of GDP-bound KRAS^WT (P01116 1-188 isoform P01116-2): as above

Compound | binding (in words) [1] | effect on SOS-mediated nucleotide release rate [2] | effect on intrinsic nucleotide release rate [2] | effect on SOS-mediated nucleotide release rate ([2]; 50 μM compound) | effect on intrinsic nucleotide release rate ([2]; 50 μM compound)
Cc1nn2c(N3CCN(CCO)CC3)cc(-c3ccccc3)nc2c1-c1ccccc1 [Compound 11, 2-[4-(8-methyl-3,9-diphenyl-2,6,7-triazabicyclo[4.3.0]nona-2,4,7,9-tetraen-5-yl)piperazin-1-yl]ethanol] | no binding; also recorded: does not bind | slightly reduced; also recorded: only modestly decreased | no effect |  | 
Cc1cc(N2CCN(CCO)CC2)n2nc(C)c(-c3ccccc3)c2n1 [Compound 13] | does not bind |  |  | dramatically increased | dramatically increased
